{"source": "paper PMC10224329", "about": "“Design, Synthesis, and Antiproliferative Activity of Benzopyran-4-One-Isoxazole Hybrid Compounds” (Molecules, 2023)", "test_in_all_cases": "Protein kinase assay (Reaction Biology)", "format_in_all_cases": "biochemical", "key": {"[1]": {"molecular_target": "T1, PKCa (Homo sapiens, UniProt P17252)", "T1 construct": "purchased Reaction Biology Corporation", "details": "duplicate, 200 μM ATP, read-out: % Enzyme Activity (Relative to DMSO Controls) PKCa", "description": "(§1) Therefore, selected compound 5a was screened against several protein kinases to explore the potential of these hybrid compounds as kinase inhibitors. The screening of compound 5a was performed on a panel of 9 kinases, viz., ABL1, c-Kit, c-Src, CDK2/cyclin A1, CSK, EGFR, mTOR/FRAP1, p38a/MAPK14, PKCa, and PI3K, at a dose of 20 μM. The respective positive controls were used for each kinase, and the kinase reaction was performed at 200 μM ATP concentration for all the kinases except for PI3K, which was performed at 10 µM ATP (Table 2). […] It appeared that compound 5a containing a 3-position substitution with an isoxazole ring and a 4-position with a carbonyl group has a detrimental effect on kinase inhibition. Previously 3-substituted benzopyran compound with a short alkyl chain of urea (NH-CO-NH-Et/Me/iPr) was reported with Abl kinase inhibitory activity in the range of 4–27 μM [36]. […] Due to prominent antiproliferative activity, these compounds may have some other targets for anticancer activity.\n(§2) Compound 5a was tested at a single dose of 20 μM against 9 kinases, viz., Abl1, c-Kit, c-Src, CDK2/cyclin A1, CSK, EGFR, mTOR/FRAP1, p38a/MAPK14, PKCa, and PI3K using our previously reported protocol in duplicate by Reaction Biology Corporation. The respective positive controls, e.g., staurosporine for all the kinases, except SB202190 for P38a/MAP14 and P1-103 for mTOR/FRAP1, were used, and the kinase reaction was performed at 200 μM ATP concentration for all the kinases except for PI3K, which was performed at 10 µM ATP."}, "[2]": {"molecular_target": "T2, CSK (Homo sapiens, UniProt P41240)", "T2 construct": "purchased Reaction Biology Corporation", "T2 sequence (P41240 whole entry)": "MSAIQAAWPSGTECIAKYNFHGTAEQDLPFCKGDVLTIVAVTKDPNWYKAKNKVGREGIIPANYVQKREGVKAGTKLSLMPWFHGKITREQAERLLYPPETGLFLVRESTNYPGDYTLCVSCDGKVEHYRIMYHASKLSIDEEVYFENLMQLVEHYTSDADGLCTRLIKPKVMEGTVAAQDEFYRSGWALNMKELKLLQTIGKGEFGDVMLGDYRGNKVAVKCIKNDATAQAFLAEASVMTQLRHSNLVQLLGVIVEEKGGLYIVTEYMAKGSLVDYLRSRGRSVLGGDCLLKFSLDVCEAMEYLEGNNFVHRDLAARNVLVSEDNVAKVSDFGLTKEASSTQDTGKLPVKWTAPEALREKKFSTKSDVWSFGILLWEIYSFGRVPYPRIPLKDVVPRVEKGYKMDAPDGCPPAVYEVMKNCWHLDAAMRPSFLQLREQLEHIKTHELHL", "details": "duplicate, 200 μM ATP, read-out: % Enzyme Activity (Relative to DMSO Controls) CSK", "description": "as §1, §2"}, "[3]": {"molecular_target": "T3, p38a/MAPK14 (Homo sapiens, UniProt Q16539)", "T3 construct": "purchased Reaction Biology Corporation", "details": "duplicate, 200 μM ATP, read-out: % Enzyme Activity (Relative to DMSO Controls) p38a/MAPK14", "description": "as §1, §2"}, "[4]": {"molecular_target": "T4, PI3K (p110a/p65a) (Homo sapiens, UniProt P42336)", "T4 construct": "purchased Reaction Biology Corporation", "details": "duplicate, 10 µM ATP, read-out: % Enzyme Activity (Relative to DMSO Controls) PI3K (p110a/p65a)", "description": "as §1, §2"}, "[5]": {"molecular_target": "T5, c-Kit (Homo sapiens, UniProt P10721)", "T5 construct": "purchased Reaction Biology Corporation", "T5 sequence (P10721 26-976)": "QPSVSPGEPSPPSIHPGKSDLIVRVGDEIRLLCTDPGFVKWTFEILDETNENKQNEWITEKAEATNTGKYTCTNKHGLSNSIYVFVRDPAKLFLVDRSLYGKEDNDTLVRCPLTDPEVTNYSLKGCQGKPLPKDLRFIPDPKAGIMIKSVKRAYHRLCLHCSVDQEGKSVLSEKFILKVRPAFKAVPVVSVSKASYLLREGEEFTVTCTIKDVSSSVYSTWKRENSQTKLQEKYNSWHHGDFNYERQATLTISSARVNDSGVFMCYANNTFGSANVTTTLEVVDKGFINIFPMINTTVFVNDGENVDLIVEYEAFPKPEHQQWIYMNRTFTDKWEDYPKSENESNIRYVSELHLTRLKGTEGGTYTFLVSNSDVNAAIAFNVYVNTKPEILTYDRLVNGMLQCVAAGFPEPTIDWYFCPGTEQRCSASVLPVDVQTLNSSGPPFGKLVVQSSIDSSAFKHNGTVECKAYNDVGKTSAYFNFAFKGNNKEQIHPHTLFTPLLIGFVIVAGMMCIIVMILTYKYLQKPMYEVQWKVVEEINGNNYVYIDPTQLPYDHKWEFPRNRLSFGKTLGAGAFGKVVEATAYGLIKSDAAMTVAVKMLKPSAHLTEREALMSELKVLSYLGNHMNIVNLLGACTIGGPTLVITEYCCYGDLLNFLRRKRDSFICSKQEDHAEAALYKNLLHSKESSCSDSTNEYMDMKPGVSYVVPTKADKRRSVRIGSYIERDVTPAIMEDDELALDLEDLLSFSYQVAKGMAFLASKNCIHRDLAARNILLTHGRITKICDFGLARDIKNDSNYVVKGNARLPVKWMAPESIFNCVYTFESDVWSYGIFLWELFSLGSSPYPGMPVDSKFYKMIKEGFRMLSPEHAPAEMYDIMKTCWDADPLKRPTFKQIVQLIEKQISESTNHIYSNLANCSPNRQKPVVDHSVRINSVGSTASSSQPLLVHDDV", "details": "duplicate, 200 μM ATP, read-out: % Enzyme Activity (Relative to DMSO Controls) c-Kit", "description": "as §1, §2"}, "[6]": {"molecular_target": "T6, mTOR/FRAP1 (Homo sapiens, UniProt P42345)", "T6 construct": "purchased Reaction Biology Corporation", "details": "duplicate, 200 μM ATP, read-out: % Enzyme Activity (Relative to DMSO Controls) mTOR/FRAP1", "description": "as §1, §2"}, "[7]": {"molecular_target": "T7, CDK2/cyclin A1 (Homo sapiens, UniProt P24941)", "T7 construct": "purchased Reaction Biology Corporation", "details": "duplicate, 200 μM ATP, read-out: % Enzyme Activity (Relative to DMSO Controls) CDK2/cyclin A1", "description": "as §1, §2"}, "[8]": {"molecular_target": "T8, ABL1 (Homo sapiens, UniProt P00519)", "T8 construct": "purchased Reaction Biology Corporation", "T8 sequence (P00519 whole entry)": "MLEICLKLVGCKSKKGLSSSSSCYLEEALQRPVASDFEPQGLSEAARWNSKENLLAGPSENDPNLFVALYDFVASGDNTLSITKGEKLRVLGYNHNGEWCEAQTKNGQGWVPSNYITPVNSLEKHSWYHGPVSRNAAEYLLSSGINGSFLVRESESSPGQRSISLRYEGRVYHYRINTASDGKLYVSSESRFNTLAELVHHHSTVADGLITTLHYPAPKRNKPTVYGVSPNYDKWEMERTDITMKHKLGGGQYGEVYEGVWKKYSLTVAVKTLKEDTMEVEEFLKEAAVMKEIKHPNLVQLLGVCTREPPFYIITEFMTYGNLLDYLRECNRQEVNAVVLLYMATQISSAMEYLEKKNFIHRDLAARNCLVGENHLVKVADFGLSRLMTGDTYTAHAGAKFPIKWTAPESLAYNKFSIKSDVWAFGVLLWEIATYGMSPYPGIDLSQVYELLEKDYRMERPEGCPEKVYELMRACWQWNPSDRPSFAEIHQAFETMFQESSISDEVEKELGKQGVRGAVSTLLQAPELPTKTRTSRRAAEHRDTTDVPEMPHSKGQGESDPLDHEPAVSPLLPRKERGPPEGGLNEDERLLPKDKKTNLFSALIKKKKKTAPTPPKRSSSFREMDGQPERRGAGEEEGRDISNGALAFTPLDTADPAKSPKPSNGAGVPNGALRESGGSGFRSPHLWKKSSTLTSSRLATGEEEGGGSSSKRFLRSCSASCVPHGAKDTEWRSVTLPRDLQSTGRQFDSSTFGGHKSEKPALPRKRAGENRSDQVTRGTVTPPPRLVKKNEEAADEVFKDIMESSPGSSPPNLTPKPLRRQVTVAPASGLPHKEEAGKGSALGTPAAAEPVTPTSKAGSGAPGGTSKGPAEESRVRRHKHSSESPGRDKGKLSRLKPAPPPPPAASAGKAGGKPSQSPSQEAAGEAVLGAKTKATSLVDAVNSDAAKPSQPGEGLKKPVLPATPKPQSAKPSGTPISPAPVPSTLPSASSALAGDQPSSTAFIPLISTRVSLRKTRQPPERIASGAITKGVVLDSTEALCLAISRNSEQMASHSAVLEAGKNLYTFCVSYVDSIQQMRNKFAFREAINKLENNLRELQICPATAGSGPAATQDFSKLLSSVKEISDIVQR", "details": "duplicate, 200 μM ATP, read-out: % Enzyme Activity (Relative to DMSO Controls) ABL1", "description": "as §1, §2"}, "[9]": {"molecular_target": "T9, EGFR (Homo sapiens, UniProt P00533)", "T9 construct": "purchased Reaction Biology Corporation", "T9 sequence (P00533 25-1210)": "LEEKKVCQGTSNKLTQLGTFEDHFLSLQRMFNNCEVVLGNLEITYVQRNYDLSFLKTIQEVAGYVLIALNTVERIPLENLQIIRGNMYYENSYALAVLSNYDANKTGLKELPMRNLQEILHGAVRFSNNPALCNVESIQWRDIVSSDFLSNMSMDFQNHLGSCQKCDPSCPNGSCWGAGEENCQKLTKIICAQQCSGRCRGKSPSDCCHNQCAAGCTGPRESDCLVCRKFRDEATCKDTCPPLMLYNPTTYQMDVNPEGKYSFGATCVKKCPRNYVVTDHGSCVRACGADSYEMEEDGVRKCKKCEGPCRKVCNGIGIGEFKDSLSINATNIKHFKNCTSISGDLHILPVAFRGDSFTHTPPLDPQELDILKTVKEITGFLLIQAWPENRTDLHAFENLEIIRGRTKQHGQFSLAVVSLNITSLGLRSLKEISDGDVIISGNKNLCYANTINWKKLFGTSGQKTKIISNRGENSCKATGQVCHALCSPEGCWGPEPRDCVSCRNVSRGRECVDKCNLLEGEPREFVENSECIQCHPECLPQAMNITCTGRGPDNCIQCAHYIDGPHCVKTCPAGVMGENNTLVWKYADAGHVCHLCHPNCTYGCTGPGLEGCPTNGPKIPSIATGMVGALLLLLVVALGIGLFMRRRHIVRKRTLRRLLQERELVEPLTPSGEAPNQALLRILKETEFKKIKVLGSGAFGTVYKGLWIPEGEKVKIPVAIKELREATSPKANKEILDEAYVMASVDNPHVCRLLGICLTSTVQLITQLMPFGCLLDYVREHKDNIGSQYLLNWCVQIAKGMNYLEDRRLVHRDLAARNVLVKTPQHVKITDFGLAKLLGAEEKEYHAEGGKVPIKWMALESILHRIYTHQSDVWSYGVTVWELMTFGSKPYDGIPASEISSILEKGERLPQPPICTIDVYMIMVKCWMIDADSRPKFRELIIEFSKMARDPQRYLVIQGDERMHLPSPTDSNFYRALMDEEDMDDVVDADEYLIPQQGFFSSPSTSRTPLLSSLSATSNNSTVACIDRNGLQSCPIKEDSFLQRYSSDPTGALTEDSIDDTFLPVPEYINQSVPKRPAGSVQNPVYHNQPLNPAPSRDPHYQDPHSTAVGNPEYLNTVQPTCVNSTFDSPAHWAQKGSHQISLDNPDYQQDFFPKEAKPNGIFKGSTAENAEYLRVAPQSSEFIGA", "details": "duplicate, 200 μM ATP, read-out: % Enzyme Activity (Relative to DMSO Controls) EGFR", "description": "as §1, §2"}, "[10]": {"molecular_target": "T10, c-Src (Homo sapiens, UniProt P12931)", "T10 construct": "purchased Reaction Biology Corporation", "T10 sequence (P12931 whole entry)": "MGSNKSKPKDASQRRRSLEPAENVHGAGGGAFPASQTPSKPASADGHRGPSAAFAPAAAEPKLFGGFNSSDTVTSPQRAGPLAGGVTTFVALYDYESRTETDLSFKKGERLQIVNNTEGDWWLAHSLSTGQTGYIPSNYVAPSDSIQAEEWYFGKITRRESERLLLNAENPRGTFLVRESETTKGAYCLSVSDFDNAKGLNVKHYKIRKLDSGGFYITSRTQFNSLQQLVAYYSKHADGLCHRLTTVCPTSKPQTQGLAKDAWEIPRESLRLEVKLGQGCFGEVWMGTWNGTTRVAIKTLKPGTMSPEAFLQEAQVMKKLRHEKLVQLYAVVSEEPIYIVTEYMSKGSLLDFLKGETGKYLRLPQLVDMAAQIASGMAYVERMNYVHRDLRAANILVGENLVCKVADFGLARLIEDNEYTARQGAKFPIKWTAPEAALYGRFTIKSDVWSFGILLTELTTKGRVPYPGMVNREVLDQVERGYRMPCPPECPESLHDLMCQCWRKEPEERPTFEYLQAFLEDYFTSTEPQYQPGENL", "details": "duplicate, 200 μM ATP, read-out: % Enzyme Activity (Relative to DMSO Controls) c-Src", "description": "as §1, §2"}}}
{"smiles": "Cc1noc(C)c1C(=O)OCc1coc2ccccc2c1=O", "note": "[Compound 5a, (4-Oxo-4H-1-benzopyran-3-yl)methyl 3,5-dimethylisoxazole-4-carboxylate]", "values": [{"measurement": "remaining activity at 20 µM", "setting": "[1]", "result": 103, "unit": "%"}, {"measurement": "remaining activity at 20 µM", "setting": "[2]", "result": 93, "unit": "%"}, {"measurement": "remaining activity at 20 µM", "setting": "[3]", "result": 83.1, "unit": "%"}, {"measurement": "remaining activity at 20 µM", "setting": "[4]", "result": 110, "unit": "%"}, {"measurement": "remaining activity at 20 µM", "setting": "[5]", "result": 95.3, "unit": "%"}, {"measurement": "remaining activity at 20 µM", "setting": "[6]", "result": 112, "unit": "%"}, {"measurement": "remaining activity at 20 µM", "setting": "[7]", "result": 105, "unit": "%"}, {"measurement": "remaining activity at 20 µM", "setting": "[8]", "result": 96.9, "unit": "%"}, {"measurement": "remaining activity at 20 µM", "setting": "[9]", "result": 99.8, "unit": "%"}, {"measurement": "remaining activity at 20 µM", "setting": "[10]", "result": 113, "unit": "%"}]}
